Source: US11279733B2, “Peptide antibiotics” (priority 2017, dated 2022)
Converted amounts (≈) assume the structure as drawn. Read-outs that look alike come from different tables or passages of the source. Positions of bridges follow the written chain, without caps; N, C: chain ends. Non-standard residues stand in square brackets, D forms with d. Residues, ends and D or L forms follow the SMILES beside them. *: point of attachment. Decanoyl(3R-OH) = CCCCCCC[C@@H](O)CC(=O)*; dDab = NCC[C@@H](N)C(=O)O; Dab = NCC[C@H](N)C(=O)O

Legend:
in vitro = details: human
Experimental: Cytotoxicity of the synthesised peptides was evaluated by comparison with commercially available colistin (polymyxin E), polymyxin B (Sigma chemical Co., St. Louis, Mo., U.S.A.) and synthetic octapeptin C4 by conducting lactate dehydrogenase (LDH) assay. CC50 values calculated based on curve fitting of dose dependent inhibition of cell growth represented the cytotoxicity of the peptide. Human kidney 2 (HK2) cells were seeded as 2000 cells per well in a 384 well cell culture plate in a final volume of 20 μL in DMEM/F12 medium (Invitrogen #11330057), in which 10% of FBS was added. Cells were incubated for 24 hours at 37° C., 5% CO2 to allow cells to attach to the plates. Similar conditions were employed for HEK293 and HepG2 cytotoxicity assays.
Colistin and polymyxin B were tested from a range of 2 mM to 0.9 μM. 120 μL of the 1 mM stock solutions in water of each synthesised peptide were freeze-dried and processed for LDH assay. After freeze-dry procedure, the compounds were reconstituted into 600 μM solutions using culture media. All tested compounds were diluted from 600 μM to 0.27 μM in 3-fold dilutions. Then 20 μL of each dilution was added into 20 uL of culture medium in quadruplicate to reach the final concentrations. The cells were incubated with the compounds for 24 h at 37° C., 5% CO2. After the incubation, 5 μL of culture medium was added to 50 μL of LDH assay buffer and incubated for 1 h at room temperature. The absorbance was read at 450 nm using Polarstar. The data was then analysed by Prism software. […] Nephrotoxicity Assessment in Human Proximal Tubule Cells.

[1] = system: K. pneumoniae GN_106, PmxR; details: GN 106, PmxR
Method in brief: (§1)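 Mid-log cultures grown in Mueller Hinton broth at 37° C were tested by 2-fold broth microdilution at 5×10^5 CFU/mL final. Compounds were dissolved in water and tested over a final range of 32 to 0.015 μg/mL.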

[2] = system: S. aureus ATCC 25923, MSSA; details: ATCC 25923
Method in brief: as §1

E. coli ATCC 25922 = details: ATCC 25922
Method in brief: as §1

A. baumannii GN_093 PmxR = details: GN 093 PmxR
Method in brief: as §1

A. baumannii ATCC 19606 = details: ATCC 19606
Method in brief: as §1

[3] = system: P. aeruginosa GN_043, PmxR
Method in brief: as §1

K. pneumoniae ATCC 13883 = details: ATCC 13883
Method in brief: as §1

[4] = system: K. pneumoniae ATCC BAA-2146, NDM-1 pos; details: ATCC BAA-2146
Method in brief: as §1

[5] = system: K. pneumoniae ATCC 700603, MDR; details: ATCC 700603
Method in brief: as §1

[6] = system: P. aeruginosa GN_105, PmxR; details: GN 105, PmxR
Method in brief: as §1

[7] = system: K. pneumoniae GN_102 PmxR; details: GN 102 PmxR
Method in brief: as §1

P. aeruginosa ATCC 27853 = details: ATCC 27853
Method in brief: as §1

Row | SMILES | CC50 at 24 h (in vitro) [µM] | MIC K. pneumoniae GN_106, PmxR [1] [mg/L] | MIC S. aureus ATCC 25923, MSSA [2] [mg/L] | MIC E. coli ATCC 25922 (E. coli ATCC 25922) [mg/L] | MIC A. baumannii GN_093 PmxR (A. baumannii GN_093 PmxR) [mg/L] | MIC A. baumannii ATCC 19606 (A. baumannii ATCC 19606) [mg/L] | MIC P. aeruginosa GN_043, PmxR ([3]; P. aeruginosa GN_043, PmxR) [mg/L] | MIC K. pneumoniae ATCC 13883 (K. pneumoniae ATCC 13883) [mg/L] | MIC K. pneumoniae ATCC BAA-2146, NDM-1 pos [4] [mg/L] | MIC K. pneumoniae ATCC 700603, MDR [5] [mg/L] | MIC P. aeruginosa GN_105, PmxR [6] [mg/L] | MIC K. pneumoniae GN_102 PmxR [7] [mg/L] | MIC P. aeruginosa ATCC 27853 (P. aeruginosa ATCC 27853) [mg/L] | MIC, E. coli ATCC 25922 (E. coli ATCC 25922) [mg/L] | MIC, A. baumannii ATCC 19606 (A. baumannii ATCC 19606) [mg/L] | MIC, K. pneumoniae ATCC 13883 (K. pneumoniae ATCC 13883) [mg/L] | MIC, K. pneumoniae ATCC BAA-2146, NDM-1 pos [4] [mg/L] | MIC, K. pneumoniae ATCC 700603, MDR [5] [mg/L] | MIC, P. aeruginosa ATCC 27853 (P. aeruginosa ATCC 27853) [mg/L] | further results
1 | CCCCCCC[C@@H](O)CC(=O)N[C@H](CCN)C(=O)N[C@H]1CCNC(=O)[C@H](CC(C)C)NC(=O)[C@H](CCN)NC(=O)[C@H](CCN)NC(=O)[C@H](C)NC(=O)[C@@H](Cc2ccccc2)NC(=O)[C@H](CCN)NC1=O [compound 4946, 3(R)OH-nC9CO-D-Dab-cyc[L-Dab-L-Dab-D-Phe-L-Ala-L-Dab-L-Dab-L-Leu]] ({Decanoyl(3R-OH)}-[dDab][Dab][Dab][dF]A[Dab][Dab]L; lactam 2-C) | 107 | 16 (≈ 16 µM) | >32 | 16 (≈ 16 µM) | 16 (≈ 16 µM) | 16 (≈ 16 µM) | 0.5 (≈ 0.499 µM) | 8 (≈ 7.98 µM) | 8 (≈ 7.98 µM) | 8 (≈ 7.98 µM) | 16 (≈ 16 µM) | 4 (≈ 3.99 µM) | 1 (≈ 0.998 µM) | – | – | – | – | – | – | –
2 | CCCCCCC[C@@H](O)CC(=O)N[C@H](CCN)C(=O)N[C@H]1CCNC(=O)[C@H](CC(C)C)NC(=O)[C@H](CCN)NC(=O)[C@H](CCN)NC(=O)[C@H](CC(C)C)NC(=O)[C@H](C)NC(=O)[C@H](CCN)NC1=O [compound 4947, 3(R)OH-nC9CO-D-Dab-cyc[L-Dab-L-Dab-L-Ala-L-Leu-L-Dab-L-Dab-L-Leu]] ({Decanoyl(3R-OH)}-[dDab][Dab][Dab]AL[Dab][Dab]L; lactam 2-C) | 213 | >32 | >32 | >32 | >32 | >32 | >32 | >32 | >32 | >32 | >32 | >32 | 32 (≈ 33 µM) | – | – | – | – | – | – | –
3 | CCCCCCC[C@@H](O)CC(=O)N[C@H](CCN)C(=O)N[C@H]1CCNC(=O)[C@H](CC(C)C)NC(=O)[C@H](CCN)NC(=O)[C@H](CCN)NC(=O)[C@H](CC(C)C)NC(=O)[C@@H](Cc2ccccc2)NC(=O)[C@H](C)NC1=O [compound 4948, 3(R)OH-nC9CO-D-Dab-cyc[L-Dab-L-Ala-D-Phe-L-Leu-L-Dab-L-Dab-L-Leu]] ({Decanoyl(3R-OH)}-[dDab][Dab]A[dF]L[Dab][Dab]L; lactam 2-C) | 112 | – | – | – | – | – | – | – | – | – | – | – | – | 16 (≈ 15.8 µM) | >32 | 16 (≈ 15.8 µM) | 8 (≈ 7.88 µM) | 16 (≈ 15.8 µM) | 1 (≈ 0.985 µM) | MIC, K. pneumoniae Cl 138-16347-20362, PmxR [1]: 16 mg/L (≈ 15.8 µM); MIC, S. Aureus ATCC 25923, MSSA [2]: >32 mg/L; MIC, A. baumannii Cl Ptyela 10073 4512:2, PmxR (A. baumannii GN_093 PmxR): >32 mg/L; MIC, P. aeruginosa FADDI-PA070, PmxR ([3]; Table 5, polymyxin-resistant): 1 mg/L (≈ 0.985 µM); MIC, P. aeruginosa PA9704, PmxR [6]: >32 mg/L; MIC, K. pneumoniae Cl Koprana 10065 0661:1, PmxR [7]: 8 mg/L (≈ 7.88 µM)
4 | CCCCCCC[C@@H](O)CC(=O)N[C@@H](C)C(=O)N[C@H]1CCNC(=O)[C@H](CC(C)C)NC(=O)[C@H](CCN)NC(=O)[C@H](CCN)NC(=O)[C@H](CC(C)C)NC(=O)[C@@H](Cc2ccccc2)NC(=O)[C@H](CCN)NC1=O [compound 4950, 3(R)OH-nC9CO-L-Ala-cyc[L-Dab-L-Dab-D-Phe-L-Leu-L-Dab-L-Dab-L-Leu]] ({Decanoyl(3R-OH)}-A[Dab][Dab][dF]L[Dab][Dab]L; lactam 2-C) | 286 | 32 (≈ 31.5 µM) | – | – | >32 | – | – | – | – | – | 32 (≈ 31.5 µM) | 8 (≈ 7.88 µM) | – | 32 (≈ 31.5 µM) | >32 | 16 (≈ 15.8 µM) | 16 (≈ 15.8 µM) | 16 (≈ 15.8 µM) | 16 (≈ 15.8 µM) | MIC, S. aureus ATCC 25923, MSSA [2]: >32 mg/L; MIC P. aeruginosa GN_043, PmxR ([3]; Table 6, polymyxin-resistant): 16 mg/L (≈ 15.8 µM)
